Measurements reported in the NIST ThermoML archive (doi:10.1016/j.jct.2004.12.014).

Key:
[1] = xn = mol fraction of the nth substance listed; details: 318.15 K, 101 kPa, Liquid
[2] = excess molar enthalpy (molar enthalpy of mixing); xn = mol fraction of the nth substance listed; details: 318.15 K, 101 kPa, Liquid

CCCCCCCCCCC [undecane] + CCCOC(=O)CC
Details	excess molar enthalpy [kcal/mol]	excess molar volume [m3/mol]
[1], x2 = 0.0413	–	1.53e-07
[1], x2 = 0.0923	–	3.2e-07
[1], x2 = 0.1761	–	5.43e-07
[1], x2 = 0.2561	–	7.24e-07
[1], x2 = 0.3307	–	8.39e-07
[1], x2 = 0.3986	–	9.06e-07
[1], x2 = 0.4638	–	9.37e-07
[1], x2 = 0.5278	–	9.47e-07
[1], x2 = 0.587	–	9.43e-07
[1], x2 = 0.6412	–	8.99e-07
[1], x2 = 0.6944	–	8.36e-07
[1], x2 = 0.744	–	7.6e-07
[1], x2 = 0.7913	–	6.62e-07
[1], x2 = 0.8364	–	5.52e-07
[1], x2 = 0.8799	–	4.45e-07
[1], x2 = 0.9196	–	2.93e-07
[1], x2 = 0.9603	–	1.75e-07
[2], x2 = 0.0636	0.0667	–
[2], x2 = 0.1368	0.127	–
[2], x2 = 0.2052	0.179	–
[2], x2 = 0.2811	0.228	–
[2], x2 = 0.355	0.26	–
[2], x2 = 0.4208	0.276	–
[2], x2 = 0.4796	0.283	–
[2], x2 = 0.5347	0.283	–
[2], x2 = 0.5876	0.276	–
[2], x2 = 0.6318	0.264	–
[2], x2 = 0.6804	0.246	–
[2], x2 = 0.7305	0.219	–
[2], x2 = 0.7842	0.188	–
[2], x2 = 0.8388	0.149	–
[2], x2 = 0.8946	0.104	–
[2], x2 = 0.9488	0.0549	–

CCCCCCCCCCCCCCC [pentadecane] + CCOC(=O)CC
Details	excess molar enthalpy [kcal/mol]	excess molar volume [m3/mol]
[1], x2 = 0.0586	–	2.35e-07
[1], x2 = 0.1287	–	4.67e-07
[1], x2 = 0.2483	–	8.47e-07
[1], x2 = 0.3372	–	1.053e-06
[1], x2 = 0.4269	–	1.184e-06
[1], x2 = 0.502	–	1.246e-06
[1], x2 = 0.5673	–	1.252e-06
[1], x2 = 0.6288	–	1.223e-06
[1], x2 = 0.6845	–	1.156e-06
[1], x2 = 0.7304	–	1.087e-06
[1], x2 = 0.7744	–	9.92e-07
[1], x2 = 0.8148	–	8.88e-07
[1], x2 = 0.8537	–	7.69e-07
[1], x2 = 0.8864	–	6.38e-07
[1], x2 = 0.919	–	5.21e-07
[1], x2 = 0.9481	–	3.55e-07
[1], x2 = 0.9742	–	1.89e-07
[2], x2 = 0.1045	0.128	–
[2], x2 = 0.2122	0.227	–
[2], x2 = 0.3158	0.312	–
[2], x2 = 0.4055	0.364	–
[2], x2 = 0.4848	0.392	–
[2], x2 = 0.5368	0.399	–
[2], x2 = 0.5811	0.398	–
[2], x2 = 0.6068	0.393	–
[2], x2 = 0.6156	0.391	–
[2], x2 = 0.6409	0.382	–
[2], x2 = 0.6796	0.366	–
[2], x2 = 0.7199	0.341	–
[2], x2 = 0.761	0.313	–
[2], x2 = 0.8036	0.273	–
[2], x2 = 0.846	0.229	–
[2], x2 = 0.8889	0.181	–
[2], x2 = 0.9311	0.124	–
[2], x2 = 0.9692	0.0613	–

CCCCCCCCCCCCC [tridecane] + CCOC(=O)CC
Details	excess molar enthalpy [kcal/mol]	excess molar volume [m3/mol]
[1], x2 = 0.0553	–	2.18e-07
[1], x2 = 0.1314	–	4.88e-07
[1], x2 = 0.2286	–	7.67e-07
[1], x2 = 0.3064	–	9.41e-07
[1], x2 = 0.3982	–	1.105e-06
[1], x2 = 0.4702	–	1.178e-06
[1], x2 = 0.5353	–	1.203e-06
[1], x2 = 0.6003	–	1.177e-06
[1], x2 = 0.6545	–	1.134e-06
[1], x2 = 0.7057	–	1.072e-06
[1], x2 = 0.7518	–	9.93e-07
[1], x2 = 0.7964	–	8.81e-07
[1], x2 = 0.8358	–	7.55e-07
[1], x2 = 0.8729	–	6.38e-07
[1], x2 = 0.9066	–	4.97e-07
[1], x2 = 0.9396	–	3.51e-07
[1], x2 = 0.9702	–	2.08e-07
[2], x2 = 0.0944	0.112	–
[2], x2 = 0.189	0.201	–
[2], x2 = 0.282	0.274	–
[2], x2 = 0.366	0.326	–
[2], x2 = 0.4354	0.355	–
[2], x2 = 0.4882	0.367	–
[2], x2 = 0.5339	0.372	–
[2], x2 = 0.5841	0.371	–
[2], x2 = 0.6332	0.361	–
[2], x2 = 0.6564	0.351	–
[2], x2 = 0.6775	0.343	–
[2], x2 = 0.6925	0.335	–
[2], x2 = 0.7364	0.306	–
[2], x2 = 0.7802	0.271	–
[2], x2 = 0.8254	0.228	–
[2], x2 = 0.8702	0.181	–
[2], x2 = 0.9163	0.127	–
[2], x2 = 0.9613	0.0636	–
